# From ChEMBL document CHEMBL1201862, “PubChem BioAssay data set” (2004)
# The source made the active and inactive calls.
# Experiments:
# [1] = biological target: Diphosphomevalonate decarboxylase (Streptococcus pneumoniae serotype 2 (strain D39 / NCTC 7466), UniProt Q9FD53); test: S. pneumoniae DPM-DC inhibition retest, confirmation, biochemical, cuvette format, coupled NADH fluorescence (AID 1028); format: functional
# Leucine aminopeptidase = biological target: T1, Leucine aminopeptidase (Plasmodium falciparum 3D7, UniProt Q8IL11); test: P. falciparum M17LAP inhibitors, primary screen, biochemical, fluorogenic H-Leu-NHMec substrate, 1536-well (AID 1619); format: functional
# T1 sequence (Q8IL11 whole entry): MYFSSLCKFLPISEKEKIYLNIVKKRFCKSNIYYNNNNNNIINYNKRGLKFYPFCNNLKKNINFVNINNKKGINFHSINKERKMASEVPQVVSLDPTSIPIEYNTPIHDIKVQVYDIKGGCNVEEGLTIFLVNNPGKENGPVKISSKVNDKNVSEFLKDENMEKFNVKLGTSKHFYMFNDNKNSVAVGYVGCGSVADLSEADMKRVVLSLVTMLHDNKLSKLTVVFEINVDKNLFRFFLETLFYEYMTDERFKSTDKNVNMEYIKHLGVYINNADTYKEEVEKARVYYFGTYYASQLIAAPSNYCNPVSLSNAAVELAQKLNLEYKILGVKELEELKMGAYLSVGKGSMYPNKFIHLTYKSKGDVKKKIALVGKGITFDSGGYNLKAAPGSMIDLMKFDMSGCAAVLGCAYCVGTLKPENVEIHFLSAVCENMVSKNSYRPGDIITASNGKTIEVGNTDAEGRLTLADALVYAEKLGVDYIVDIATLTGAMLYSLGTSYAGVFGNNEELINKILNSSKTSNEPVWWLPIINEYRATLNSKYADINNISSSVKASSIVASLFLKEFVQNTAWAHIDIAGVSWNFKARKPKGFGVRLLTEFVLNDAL
# Aspartyl aminopeptidase = Aspartyl aminopeptidase (Plasmodium falciparum 3D7, UniProt Q8I2J3); test: Counterscreen for inhibitors of M1 and M17 aminopeptidases: QFRET-based biochemical high throughput dose response assay for inhibitors of the Plasmodium falciparum M18 Aspartyl Aminopeptidase (PFM18AAP). [Related PubChem assays: 1619 (Screening assay (M17LAP inhibitors).), 1445 (Screening assay (M1AAP inhibitors).)]
# Procathepsin L = Procathepsin L (Homo sapiens, UniProt P07711); test: cathepsin L inhibitors, dose response, counter-screen for M1/M17 aminopeptidase inhibitor project, biochemical, QFRET, 1536-well (AID 2214)
# 14-3-3 protein gamma = 14-3-3 protein gamma (Homo sapiens, UniProt P61981); test: modulators of 14-3-3 gamma client binding – dose response (AID 711); format: functional
# Cytochrome P450 2C19 [2] = biological target: T2, Cytochrome P450 2C19 (Homo sapiens, UniProt P33261); test: qHTS Assay for Inhibitors and Substrates of Cytochrome P450 2C19. [Related pubchem assays: 410 ]; format: ADME; conditions: read-out: Potency
# [3] = biological target: Peroxisome proliferator-activated receptor gamma/Nuclear receptor corepressor 2 (Homo sapiens, UniProt P37231+Q9Y618); test: Counterscreen for NR2E3 inverse agonists: TR-FRET-based biochemical high throughput dose response assay to identify inverse agonists of the interaction between peroxisome proliferator-activated receptor gamma (PPARg) and nuclear receptor co-repressor 2 (NCOR2).; format: functional
# [4] = biological target: Photoreceptor-specific nuclear receptor (Homo sapiens, UniProt Q9Y5X4); test: NR2E3 inverse agonists, dose response, biochemical, TR-FRET (AID 463256); format: functional
# [5] = biological target: 5-hydroxytryptamine receptor 1A (Homo sapiens, UniProt P08908); format: functional
# [6] = biological target: T3, Dual specificity protein phosphatase 6 (Rattus norvegicus, UniProt Q64346); test: MKP-3 phosphatase inhibitors, primary screen, biochemical, rat enzyme, in vitro (AID 425)
# T3 sequence (Q64346 whole entry): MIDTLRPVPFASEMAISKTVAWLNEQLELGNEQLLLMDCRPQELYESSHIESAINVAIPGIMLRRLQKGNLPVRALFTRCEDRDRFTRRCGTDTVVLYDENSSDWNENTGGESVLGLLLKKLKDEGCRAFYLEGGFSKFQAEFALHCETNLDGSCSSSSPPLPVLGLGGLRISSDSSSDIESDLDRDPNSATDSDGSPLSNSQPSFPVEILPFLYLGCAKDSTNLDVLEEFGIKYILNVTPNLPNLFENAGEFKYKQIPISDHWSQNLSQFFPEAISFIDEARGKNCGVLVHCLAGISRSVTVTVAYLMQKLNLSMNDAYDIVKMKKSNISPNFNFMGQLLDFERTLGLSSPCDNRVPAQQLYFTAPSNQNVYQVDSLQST
# Heat shock protein HSP90 = Heat shock protein HSP90 (Homo sapiens, UniProt P07900+P08238); test: tumor Hsp90 inhibitor potency, dose response (AID 712); format: functional
# Cytochrome P450 2C19 [7] = biological target: T2, Cytochrome P450 2C19; test: Cytochrome panel assay with activity outcomes. Panel member name: p450-cyp2c19 Compounds with AC50 equal or less than 10 uM are considered active; format: functional; conditions: read-out: AC50
# Cytochrome P450 2D6 = Cytochrome P450 2D6 (Homo sapiens, UniProt P10635);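 also: CYP2D6 member of a cytochrome P450 panel assay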
# [8] = biological target: Protein-tyrosine kinase 2-beta (Homo sapiens, UniProt Q14289);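 also: potency of inhibitors of PYK2 kinase phosphorylation of poly-GT substrate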
# Cytochrome P450 2C9 = Cytochrome P450 2C9 (Homo sapiens, UniProt P11712)
# Cytochrome P450 1A2 = biological target: T4, Cytochrome P450 1A2 (Homo sapiens, UniProt P05177);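 also: PubChem cytochrome P450 panel assay, CYP1A2 panel member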
# T4 sequence (P05177 whole entry): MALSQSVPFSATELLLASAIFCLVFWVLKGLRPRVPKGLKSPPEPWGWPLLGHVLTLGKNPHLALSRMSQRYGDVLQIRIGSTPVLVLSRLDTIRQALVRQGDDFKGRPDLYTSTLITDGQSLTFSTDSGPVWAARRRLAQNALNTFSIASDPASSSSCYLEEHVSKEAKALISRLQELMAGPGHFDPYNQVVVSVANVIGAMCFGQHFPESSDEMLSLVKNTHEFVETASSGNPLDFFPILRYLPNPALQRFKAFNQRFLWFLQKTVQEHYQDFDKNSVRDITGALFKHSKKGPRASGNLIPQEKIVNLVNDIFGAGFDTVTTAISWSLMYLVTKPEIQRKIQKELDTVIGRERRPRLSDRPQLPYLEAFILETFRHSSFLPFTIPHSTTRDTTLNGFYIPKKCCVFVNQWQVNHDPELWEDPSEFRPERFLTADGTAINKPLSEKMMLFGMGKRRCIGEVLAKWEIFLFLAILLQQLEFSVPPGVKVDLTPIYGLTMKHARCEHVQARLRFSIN
# [9] = biological target: Sphingosine 1-phosphate receptor 2 (Homo sapiens, UniProt O95136); test: Dose Response Cell Based Assay for Agonists of the S1P2 Receptor. [Related pubchem assays: 729, 736, 843 ]; format: functional
# Galanin receptor type 2 = Galanin receptor type 2 (Homo sapiens, UniProt O43603); test: Dose Response cell-based high-throughput screening assay to identify antagonists of galanin receptor 2 (GALR2). [Related pubchem assays: 828, 866 ]; format: functional
# [10] = control 3'UTR Renilla luciferase suppression, dose response, counter-screen for Shn3 inhibitor project, cell-based, Clone20-Shn3RL, cherry-picked (AID 624133); format: functional
# INS1 = test: beta cell apoptosis inhibitors, cytokine rescue, dose response, luminescence, retest (AID 449756); format: functional, cell-based; conditions: Rattus norvegicus;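 also: cell death triggered by IL-1 beta plus TNF-alpha plus IFN-gamma mixture; protective hits raise ATP signal compared with cytokine alone wells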
# [11] = Shn3 3'UTR reporter inhibitors, dose response, cell-based, Clone20 osteoblasts, firefly luciferase, cherry-picked (AID 624132); format: functional;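 also: firefly luciferase luminescence from reporter carrying the Shn3 3'UTR in osteoblasts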
# [12] = HepG2 cell cytotoxicity, dose response, cytotoxicity control for Shn3 inhibitor project, CellTiter-Glo, cherry-picked (AID 624134); format: functional, cell-based
# Streptococcus = test: Group A Streptococcus viability loss, dose response, counter-screen for streptokinase expression inhibitor project, luminescence, BacTiterGlo (AID 1915); format: functional, organism-based;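 also: potency for reduction of bacterial viability or growth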
# [13] = biological target: T5, Tyrosine-protein phosphatase non-receptor type 7 (Homo sapiens, UniProt P35236); test: inhibitors of human HePTP phosphatase, […], biochemical, absorbance, leukemia target (AID 521); format: functional
# T5 sequence (P35236 whole entry): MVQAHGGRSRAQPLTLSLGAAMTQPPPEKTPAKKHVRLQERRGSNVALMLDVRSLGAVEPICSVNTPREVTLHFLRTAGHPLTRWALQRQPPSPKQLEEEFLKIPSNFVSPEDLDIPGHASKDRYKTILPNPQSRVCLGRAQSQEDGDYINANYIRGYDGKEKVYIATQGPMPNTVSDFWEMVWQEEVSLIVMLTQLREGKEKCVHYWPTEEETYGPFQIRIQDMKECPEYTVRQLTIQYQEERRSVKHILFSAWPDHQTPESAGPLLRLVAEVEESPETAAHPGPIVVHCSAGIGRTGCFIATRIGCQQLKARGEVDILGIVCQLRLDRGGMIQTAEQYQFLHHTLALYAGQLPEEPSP
# [14] = cytotoxicity in HEK-293T cells, dose response, cytotoxicity control for TCR NF-kB inhibitor project, luminescence, T-cell screen hits (AID 489026); format: functional, cell-based;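 also: cells exposed to compound about 14 hours before the viability readout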
# Streptokinase A = biological target: T6, Streptokinase A (Streptococcus pyogenes serotype M1, UniProt P10520); test: S. pyogenes streptokinase expression inhibitors, potency, dose response, plasminogen activation absorbance, OD405 (AID 1914); format: functional, Streptococcus pyogenes M1 GAS;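 also: secreted streptokinase activity via plasminogen activation per viability signal from cell pellet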
# T6 sequence (P10520 whole entry): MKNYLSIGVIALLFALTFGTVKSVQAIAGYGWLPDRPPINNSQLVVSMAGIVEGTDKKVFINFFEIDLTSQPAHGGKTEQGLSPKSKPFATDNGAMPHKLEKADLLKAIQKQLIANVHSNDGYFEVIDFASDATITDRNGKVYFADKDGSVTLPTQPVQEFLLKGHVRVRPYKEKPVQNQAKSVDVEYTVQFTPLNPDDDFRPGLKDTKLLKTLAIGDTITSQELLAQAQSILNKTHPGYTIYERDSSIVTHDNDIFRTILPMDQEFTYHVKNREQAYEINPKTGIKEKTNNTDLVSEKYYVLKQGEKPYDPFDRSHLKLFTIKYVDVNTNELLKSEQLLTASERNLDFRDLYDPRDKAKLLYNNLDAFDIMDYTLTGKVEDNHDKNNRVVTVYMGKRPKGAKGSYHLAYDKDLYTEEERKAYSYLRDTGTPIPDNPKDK
# [15] = biological target: Mitogen-activated protein kinase 10 (Homo sapiens, UniProt P53779); test: Dose response biochemical screening assay for inhibitors of c-Jun N-Terminal Kinase 3 (JNK3). [Related pubchem assays: 746 ]
# [16] = biological target: T7, Aryl hydrocarbon receptor (Homo sapiens, UniProt P35869); test: Luminescence-based cell-based high throughput dose response assay for activators of the Aryl Hydrocarbon Receptor (AHR). [Related pubchem assays: 2796 (Primary screen (AHR activators in singlicate)), 2845 (Confirmation screen (AHR activators in triplicate)), 434939 (Counterscreen (PXR activators in triplicate)), 2804 (Summary (AHR activators))]; format: ADME
# T7 sequence (P35869 whole entry): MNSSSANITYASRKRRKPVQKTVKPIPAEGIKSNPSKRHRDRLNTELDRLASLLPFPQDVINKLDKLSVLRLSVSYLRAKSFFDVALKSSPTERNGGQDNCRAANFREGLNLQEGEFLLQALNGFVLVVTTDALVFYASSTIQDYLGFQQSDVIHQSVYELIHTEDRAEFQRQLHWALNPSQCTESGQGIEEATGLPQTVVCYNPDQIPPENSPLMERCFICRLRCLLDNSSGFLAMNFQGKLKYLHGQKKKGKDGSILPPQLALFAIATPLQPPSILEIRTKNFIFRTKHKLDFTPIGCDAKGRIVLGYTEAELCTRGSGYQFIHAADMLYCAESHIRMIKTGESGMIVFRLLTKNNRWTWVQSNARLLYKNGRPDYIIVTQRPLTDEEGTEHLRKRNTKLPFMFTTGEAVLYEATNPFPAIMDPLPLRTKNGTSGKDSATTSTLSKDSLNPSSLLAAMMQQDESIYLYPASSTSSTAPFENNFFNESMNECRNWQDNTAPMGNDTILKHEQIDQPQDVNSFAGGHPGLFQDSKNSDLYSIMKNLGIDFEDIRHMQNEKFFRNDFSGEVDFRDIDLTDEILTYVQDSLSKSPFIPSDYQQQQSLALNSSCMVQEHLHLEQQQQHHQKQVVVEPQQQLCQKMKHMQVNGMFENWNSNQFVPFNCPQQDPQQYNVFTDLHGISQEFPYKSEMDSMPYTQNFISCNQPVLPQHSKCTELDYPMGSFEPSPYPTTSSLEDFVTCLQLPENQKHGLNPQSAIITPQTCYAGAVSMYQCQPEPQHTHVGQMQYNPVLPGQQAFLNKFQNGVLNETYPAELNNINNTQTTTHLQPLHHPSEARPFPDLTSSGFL
# T2 sequence (P33261 whole entry): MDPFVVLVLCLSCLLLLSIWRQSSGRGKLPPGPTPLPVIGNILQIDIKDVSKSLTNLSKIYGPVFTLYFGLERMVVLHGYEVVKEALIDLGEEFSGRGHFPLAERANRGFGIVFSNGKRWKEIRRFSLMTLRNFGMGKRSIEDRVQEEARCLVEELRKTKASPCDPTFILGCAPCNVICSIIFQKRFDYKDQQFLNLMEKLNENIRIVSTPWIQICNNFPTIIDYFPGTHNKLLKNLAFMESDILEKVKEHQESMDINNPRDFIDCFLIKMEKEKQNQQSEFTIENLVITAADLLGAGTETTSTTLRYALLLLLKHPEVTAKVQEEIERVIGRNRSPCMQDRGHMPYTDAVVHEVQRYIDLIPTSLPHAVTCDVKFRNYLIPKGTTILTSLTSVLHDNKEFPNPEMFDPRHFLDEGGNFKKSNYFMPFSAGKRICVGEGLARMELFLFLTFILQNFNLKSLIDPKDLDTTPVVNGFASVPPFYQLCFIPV
# Chain of Procathepsin L (P07711 whole entry): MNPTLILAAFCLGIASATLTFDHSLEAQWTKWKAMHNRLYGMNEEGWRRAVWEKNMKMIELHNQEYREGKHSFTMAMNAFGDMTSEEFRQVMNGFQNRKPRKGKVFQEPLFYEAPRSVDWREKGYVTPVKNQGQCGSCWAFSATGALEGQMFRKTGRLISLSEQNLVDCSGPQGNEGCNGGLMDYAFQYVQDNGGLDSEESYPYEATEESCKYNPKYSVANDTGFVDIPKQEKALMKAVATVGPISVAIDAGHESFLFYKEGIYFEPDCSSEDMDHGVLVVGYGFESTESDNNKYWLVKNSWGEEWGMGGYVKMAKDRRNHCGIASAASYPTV
# Chain of Galanin receptor type 2 (O43603 whole entry): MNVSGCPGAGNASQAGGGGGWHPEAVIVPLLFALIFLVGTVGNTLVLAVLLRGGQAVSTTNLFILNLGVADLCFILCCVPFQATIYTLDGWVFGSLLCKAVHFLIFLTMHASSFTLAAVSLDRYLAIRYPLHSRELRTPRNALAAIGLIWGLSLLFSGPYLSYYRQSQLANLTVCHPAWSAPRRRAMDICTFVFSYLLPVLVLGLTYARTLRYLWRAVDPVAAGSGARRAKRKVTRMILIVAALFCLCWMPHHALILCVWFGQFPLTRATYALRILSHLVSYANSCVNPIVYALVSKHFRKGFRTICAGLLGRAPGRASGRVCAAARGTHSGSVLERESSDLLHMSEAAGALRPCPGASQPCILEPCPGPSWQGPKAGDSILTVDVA
# Chain of Cytochrome P450 2C9 (P11712 whole entry): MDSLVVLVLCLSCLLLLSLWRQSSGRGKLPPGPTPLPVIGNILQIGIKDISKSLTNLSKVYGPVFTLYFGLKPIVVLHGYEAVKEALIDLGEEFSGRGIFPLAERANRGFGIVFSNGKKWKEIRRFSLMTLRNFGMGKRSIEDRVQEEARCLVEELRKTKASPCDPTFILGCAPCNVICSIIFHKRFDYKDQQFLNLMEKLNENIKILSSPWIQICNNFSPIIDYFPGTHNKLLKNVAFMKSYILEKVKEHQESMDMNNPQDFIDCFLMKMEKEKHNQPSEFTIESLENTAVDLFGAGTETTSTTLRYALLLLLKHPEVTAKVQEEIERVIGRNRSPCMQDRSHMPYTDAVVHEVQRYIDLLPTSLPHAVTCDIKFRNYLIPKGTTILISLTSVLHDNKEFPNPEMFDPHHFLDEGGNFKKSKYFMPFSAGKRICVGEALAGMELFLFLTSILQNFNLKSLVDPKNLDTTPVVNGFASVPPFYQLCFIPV
# Chain of Photoreceptor-specific nuclear receptor (Q9Y5X4 whole entry): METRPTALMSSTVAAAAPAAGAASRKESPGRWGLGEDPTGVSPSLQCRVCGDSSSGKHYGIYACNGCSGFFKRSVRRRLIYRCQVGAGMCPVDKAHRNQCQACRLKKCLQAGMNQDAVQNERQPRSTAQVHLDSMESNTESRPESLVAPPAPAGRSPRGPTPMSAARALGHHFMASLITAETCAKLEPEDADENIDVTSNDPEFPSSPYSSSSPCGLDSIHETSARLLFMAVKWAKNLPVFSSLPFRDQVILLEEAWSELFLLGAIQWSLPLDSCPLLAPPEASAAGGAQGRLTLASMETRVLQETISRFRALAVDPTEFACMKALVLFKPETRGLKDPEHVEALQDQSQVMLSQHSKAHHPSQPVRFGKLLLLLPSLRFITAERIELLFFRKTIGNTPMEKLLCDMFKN
# Chain of Mitogen-activated protein kinase 10 (P53779 whole entry): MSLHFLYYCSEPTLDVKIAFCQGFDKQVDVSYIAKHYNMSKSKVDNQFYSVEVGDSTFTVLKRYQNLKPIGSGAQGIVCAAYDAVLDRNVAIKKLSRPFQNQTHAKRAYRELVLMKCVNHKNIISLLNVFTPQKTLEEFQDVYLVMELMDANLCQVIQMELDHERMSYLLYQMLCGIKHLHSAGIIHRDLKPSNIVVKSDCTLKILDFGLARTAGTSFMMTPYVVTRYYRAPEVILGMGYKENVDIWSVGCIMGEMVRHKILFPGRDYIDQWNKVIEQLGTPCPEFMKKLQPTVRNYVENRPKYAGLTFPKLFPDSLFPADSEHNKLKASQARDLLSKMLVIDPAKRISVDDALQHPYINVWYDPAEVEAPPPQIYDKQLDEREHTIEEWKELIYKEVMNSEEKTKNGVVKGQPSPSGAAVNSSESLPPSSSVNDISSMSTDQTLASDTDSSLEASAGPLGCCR
# Chain of Aspartyl aminopeptidase (Q8I2J3 whole entry): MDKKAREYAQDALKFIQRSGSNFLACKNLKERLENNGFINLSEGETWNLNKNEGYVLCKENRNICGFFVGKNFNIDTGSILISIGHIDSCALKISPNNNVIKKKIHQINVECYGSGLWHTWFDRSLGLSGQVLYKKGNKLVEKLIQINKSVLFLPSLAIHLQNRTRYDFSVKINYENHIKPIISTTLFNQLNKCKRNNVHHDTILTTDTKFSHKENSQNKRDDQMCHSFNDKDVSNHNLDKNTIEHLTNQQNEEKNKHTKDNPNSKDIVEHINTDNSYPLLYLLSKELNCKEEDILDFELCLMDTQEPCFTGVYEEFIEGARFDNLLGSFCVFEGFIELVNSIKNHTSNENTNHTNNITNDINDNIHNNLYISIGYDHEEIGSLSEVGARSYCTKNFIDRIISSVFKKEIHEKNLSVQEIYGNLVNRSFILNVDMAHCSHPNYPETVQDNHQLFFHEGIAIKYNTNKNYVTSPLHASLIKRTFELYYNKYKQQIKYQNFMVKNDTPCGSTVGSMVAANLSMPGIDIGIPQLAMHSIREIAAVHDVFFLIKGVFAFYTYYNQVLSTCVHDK
# Chain of Protein-tyrosine kinase 2-beta (Q14289 whole entry): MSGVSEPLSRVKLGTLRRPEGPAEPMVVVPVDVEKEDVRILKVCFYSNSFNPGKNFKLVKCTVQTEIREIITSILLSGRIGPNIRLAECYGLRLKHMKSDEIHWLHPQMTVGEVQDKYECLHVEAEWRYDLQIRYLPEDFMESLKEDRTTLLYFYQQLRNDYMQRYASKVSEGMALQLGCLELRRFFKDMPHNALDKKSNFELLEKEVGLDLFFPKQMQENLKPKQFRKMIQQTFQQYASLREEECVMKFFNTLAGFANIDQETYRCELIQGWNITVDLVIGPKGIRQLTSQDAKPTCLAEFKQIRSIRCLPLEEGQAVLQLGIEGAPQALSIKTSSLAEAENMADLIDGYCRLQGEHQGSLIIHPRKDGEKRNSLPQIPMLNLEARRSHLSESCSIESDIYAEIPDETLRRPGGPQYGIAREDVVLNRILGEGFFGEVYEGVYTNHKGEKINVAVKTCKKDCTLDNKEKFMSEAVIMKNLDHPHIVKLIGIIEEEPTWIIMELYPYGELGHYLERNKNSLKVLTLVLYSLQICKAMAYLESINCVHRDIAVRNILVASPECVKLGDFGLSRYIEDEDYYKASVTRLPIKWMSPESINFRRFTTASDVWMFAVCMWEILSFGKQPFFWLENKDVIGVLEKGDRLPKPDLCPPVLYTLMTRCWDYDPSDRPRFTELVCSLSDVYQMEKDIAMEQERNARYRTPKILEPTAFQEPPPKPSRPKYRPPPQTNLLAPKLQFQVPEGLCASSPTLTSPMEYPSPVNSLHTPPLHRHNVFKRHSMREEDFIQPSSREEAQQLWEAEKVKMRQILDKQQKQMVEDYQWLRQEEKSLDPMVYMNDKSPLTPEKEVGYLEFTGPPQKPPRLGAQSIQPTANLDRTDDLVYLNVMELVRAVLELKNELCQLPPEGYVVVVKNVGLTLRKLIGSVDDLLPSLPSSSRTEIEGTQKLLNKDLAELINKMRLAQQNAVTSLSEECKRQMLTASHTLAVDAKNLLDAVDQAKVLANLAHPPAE
# Chain of Diphosphomevalonate decarboxylase (Q9FD53 whole entry): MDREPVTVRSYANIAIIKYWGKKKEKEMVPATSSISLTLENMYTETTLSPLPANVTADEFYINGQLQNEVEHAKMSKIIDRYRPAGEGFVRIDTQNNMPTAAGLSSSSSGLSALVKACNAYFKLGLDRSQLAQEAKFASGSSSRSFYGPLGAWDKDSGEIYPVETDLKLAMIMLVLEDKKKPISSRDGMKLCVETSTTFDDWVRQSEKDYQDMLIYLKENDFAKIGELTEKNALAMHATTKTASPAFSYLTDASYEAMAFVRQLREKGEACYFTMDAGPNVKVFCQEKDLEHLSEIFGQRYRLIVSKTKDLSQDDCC
# Chain of Sphingosine 1-phosphate receptor 2 (O95136 whole entry): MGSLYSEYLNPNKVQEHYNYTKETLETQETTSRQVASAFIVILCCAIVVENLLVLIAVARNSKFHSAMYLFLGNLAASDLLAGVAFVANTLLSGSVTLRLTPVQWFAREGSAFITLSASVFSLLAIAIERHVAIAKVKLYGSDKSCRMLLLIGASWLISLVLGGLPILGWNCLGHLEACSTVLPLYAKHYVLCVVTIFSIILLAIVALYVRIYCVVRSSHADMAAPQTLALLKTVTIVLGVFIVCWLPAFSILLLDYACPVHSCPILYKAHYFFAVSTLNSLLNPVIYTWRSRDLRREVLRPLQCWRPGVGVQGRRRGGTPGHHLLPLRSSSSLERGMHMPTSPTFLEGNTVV
smiles,measurement,setting,value
O=C(NC1CC1)c1ccc(-n2sc3ccccc3c2=O)cc1,IC50,[1],11.4 µM (active)
Cc1c(O)n(-c2ccccc2)c(SCC(=O)Nc2ccc3c4c(cccc24)CC3)nc1=O,IC50,Leucine aminopeptidase,5.11 µM (active)
same,IC50,Aspartyl aminopeptidase,> 73.5 µM (not active)
same,IC50,Procathepsin L,> 59.6 µM (not active)
Cc1nc2nc(Cc3ccccc3)nn2c(O)c1Cc1ccccc1,IC50,14-3-3 protein gamma,> 50 µM (not active)
COC(=O)C(C(C)=O)C(NC(=O)NCc1ccccc1)c1ccccc1 (centres undefined),AC50,Cytochrome P450 2C19 [2],1.26 µM (inconclusive)
COc1ccc(-n2nc(C(=O)NCC(=O)NCc3ccc(F)cc3)c3ccccc3c2=O)cc1OC,IC50,[3],0.941 µM (active)
same,IC50,[4],1.46 µM (active)
O=S(=O)(c1cccc(Cl)c1)N1CCCC1,EC50,[5],> 50 µM (not active)
CCn1nc(-c2cccs2)nc2c(=O)n(C)c(=O)nc1-2,IC50,[6],1.98 µM (active)
same,IC50,Heat shock protein HSP90,5 µM
O=C(NCCc1c[nH]c2ccccc12)C1CCN(c2nnc(N3CCCC3=O)s2)CC1,AC50,Cytochrome P450 2C19 [7],7.94 µM (inconclusive)
same,AC50,Cytochrome P450 2D6,10 µM (inconclusive)
same,IC50,[8],22.7 µM (not active)
same,AC50,Cytochrome P450 2C9,10 µM (inconclusive)
O=c1c(-c2nc3ccccc3s2)cccn1Cc1ccc(Cl)cc1,AC50,Cytochrome P450 2C19 [7],1.12 µM (inconclusive)
same,AC50,Cytochrome P450 1A2,1.41 µM (inconclusive)
same,EC50,[9],2.89 µM (active)
Cc1cccc(C(=O)Nc2ccc(C(=O)/C=C/c3cccnc3)cc2)c1,IC50,Galanin receptor type 2,21.4 µM (not active)
same,AC50,[10],10.7 µM (active)
same,AC50,INS1,5.53 µM (active)
same,AC50,[11],6.23 µM (active)
same,AC50,[12],30.9 µM (active)
COc1cccc2sc(Nc3nnc(-c4ccccc4Cl)o3)nc12,EC50,Streptococcus,> 150 µM (inconclusive)
same,IC50,[13],> 100 µM (not active)
same,IC50,[14],61.1 µM (inactive)
same,EC50,Streptokinase A,> 150 µM (not active)
NC(=O)c1oc2ccccc2c1NC(=O)c1ccc(F)cc1,IC50,[15],23.9 µM (not active)
same,EC50,[16],4.12 µM (active)
